According to patent publication US5597715A, “7,42-Bis(O-demethyl)rapamycin” (SmithKline Beecham p.l.c., priority 1993, dated 1997):

Tested on: Spleen cells
Assay: Mitogenesis Assay for Immunosuppressive Activity (Concanavalin A, 3H-thymidine)
Type: cell-based, BDF1 female mice
Details: Mus musculus; Concanavalin A 5 μg/ml, 72 hours, 3H-thymidine last 18 hours
Method: Spleen cells for BDF1 female mice were established in RPMI with 10% fetal calf serum at 5×10^6 /mL. One hundred […] of this suspension (5×10^5 cells) were dispensed into 96-well round-bottomed microtiter plates (Linbro, Flow Laboratories). Concanavalin A (5 μg/ml) was added as the mitogenic stimulus, and the final volume in the microtiter wells was adjusted to 200 μL with RPMI. Cell cultures were incubated for 72 hours at 37° C. in a 5% CO2 atmosphere and pulsed with 0,5 μCi ^3 H-thymidine (specific activity […]) for the last 18 hours of the 72 hours culture. The cells were harvested on an automated multiple sample harvester and cell-associated radioactivity counted in a Beckman liquid scintillation counter. The results were expressed as the mean values derived from quadruplicate measurements. Cell viability was determined by trypan blue exclusion after 72 hours of incubation. Compounds to be tested were added to the microtiter plates at the appropriate dilutions prior to the addition of cells.

IC50: 10 to 130 nM
Compound: COC1C(=O)C(C)CC(C)C=CC=CC=C(C)C(O)CC2CCC(C)C(O)(O2)C(=O)C(=O)N2CCCCC2C(=O)OC(C(C)CC2CCC(O)C(O)C2)CC(=O)C(C)C=C(C)C1O (stereo not shown) [7,42-Bis(O-demethyl)rapamycin]
